Test results from US9023857B2, “Substituted 6-(2-aminobenzylamino)purine derivatives, their use as medicaments and preparations containing these compounds” (Univerzita Palackeho V Olomouci, priority 2009, dated 2015).

Tests used:
[1] = target: CDK9 (Homo sapiens, UniProt P50750); conditions: Olomoucine II compared with Roscovitine; cited from earlier work
[2] = system: tumor suppressor protein p53; conditions: Olomoucine II compared with Roscovitine; cited from earlier work
[3] = system: HAd4; assay: Plaque number reduction assay, HAd4 on A549; type: cell-based, Human adenovirus type 4 (HAdV-4) strain RI-6
[4] = system: SV40 large T-antigen in COS-1 cells; assay: Expression from SV40 promoter incorporated in the cellular genome (COS-1 cells); type: cell-based; conditions: COS-1 cells (FIG. 10)
Procedure: Cell were detached with rubber policeman and washed three times with ice-cold PBS and lysed in buffer (50 mM Tris, pH 7.4, 250 mM NaCl, 5 mM EDTA, 50 mM NaF, 1 mM Na3VO4, 1% Nonidet P40) containing mixture of protease and phosphatase inhibitors (Sigma-Aldrich St Louis, Mo., USA). 20 μg of total proteins were separated by SDS-polyacrylamide gel electrophoresis (SDS-PAGE) on 8% or 10% gels and transferred onto nitrocellulose membranes. Membranes were blocked in 5% milk and 0.1% Tween 20 in PBS and probed overnight with specific monoclonal antibodies or rabbit polyclonal sera. Primary antibodies specific for RNA polymerase II (all from Santa Cruz Biotechnology, California, USA) included: (i) N-20 used at […] (ii) H14, specific for form phosphorylated at phosphoserine 5, used at 6 μg/ml and (iii) H5, specific for form phosphorylated at phosphoserine 2 used at 4 μg/ml. Additional primary mAb used in immunblots included (iv) anti-p53 (D0-1, in house, […]) used at 1 μg/ml, (v) anti-p21^WAF1 (118, in house), used at 1 μg/ml), (vi) anti-actin (A-2066, Sigma-Aldrich St Louis, Mo., USA) used at 1 μg/ml, (vii) anti-T-antigen (419, in house, Lane), used at 1 μg/ml. All primary antibodies were diluted in PBS containing 5% powdered milk; 0.1% Tween 20. […]

[5] = system: C-terminal domain (CTD) of RNA polymerase II, serine 2 and serine 5; assay: Immunoblotting: phosphorylation of the C-terminal domain of RNA polymerase II; type: cell-based; conditions: 12 hours treatment, cell lines with incorporated SV40, all tested cell lines (FIG. 12A)
Procedure: Cell were detached with rubber policeman and washed three times with ice-cold PBS and lysed in buffer (50 mM Tris, pH 7.4, 250 mM NaCl, 5 mM EDTA, 50 mM NaF, 1 mM Na3VO4, 1% Nonidet P40) containing mixture of protease and phosphatase inhibitors (Sigma-Aldrich St Louis, Mo., USA). 20 μg of total proteins were separated by SDS-polyacrylamide gel electrophoresis (SDS-PAGE) on 8% or 10% gels and transferred onto nitrocellulose membranes. Membranes were blocked in 5% milk and 0.1% Tween 20 in PBS and probed overnight with specific monoclonal antibodies or rabbit polyclonal sera. Primary antibodies specific for RNA polymerase II (all from Santa Cruz Biotechnology, California, USA) included: (i) N-20 used at 1 μg/ml, (ii) H14, specific for form phosphorylated at phosphoserine 5, used at 6 μg/ml and (iii) H5, specific for form phosphorylated at phosphoserine 2 used at 4 μg/ml. Additional primary mAb used in immunblots included (iv) anti-p53 (DO-1, in house) used at 1 μg/ml, (v) anti-p21^WAF1 (118, in house), used at 1 μg/ml), (vi) anti-actin (A-2066, Sigma-Aldrich St Louis, Mo., USA) used at 1 μg/ml, (vii) anti-T-antigen (419, in house), used at 1 μg/ml. All primary antibodies were diluted in PBS containing 5% powdered milk; 0.1% Tween 20. Peroxidase conjugated rabbit anti-mouse immunoglobulin or porcine anti-rabbit immunoglobulin antisera (DAKO, Glostrup, Denmark) were used as the secondary antibodies and visualised with ECL reagents (Amersham-Pharmacia, Little Chalfont, UK).
Modulation of expression from the HIV promoter by CDKI treatment may be mediated by transcriptional regulation. At the C-terminus of the largest subunit of RNA Pol II is an important regulatory domain referred to as CTD (C-terminal domain). We therefore investigated the effect of CDKIs on CTD serine 2 and serine 5 phosphorylation. […] Although the functions of CDKs and RNA polymerase II were suppressed, the expression from incorporated viral promoters was enhanced.
Cell were detached with rubber policeman and washed three times with ice-cold PBS and lysed in buffer (50 mM Tris, pH 7.4, 250 mM NaCl, 5 mM EDTA, 50 mM NaF, 1 mM Na3VO4, 1% Nonidet P40) containing mixture of protease and phosphatase inhibitors (Sigma-Aldrich St Louis, Mo., USA). 20 μg of total proteins were separated by SDS-polyacrylamide gel electrophoresis (SDS-PAGE) on 8% or 10% gels and transferred onto nitrocellulose membranes. Membranes were blocked in 5% milk and 0.1% Tween 20 in PBS and probed overnight with specific monoclonal antibodies or rabbit polyclonal sera. […]

[6] = system: CMV promoter (plasmid pCMV-lacZ); assay: β-galactosidase expression from transiently transfected pCMV-lacZ in MCF-7 and T47D; conditions: transiently transfected MCF-7 and T47D (FIG. 9)
[7] = system: MV; assay: MV syncytium reduction assay in B95a cells; type: cell-based, Measles virus wildtype strain WTFb
[8] = system: VV; type: cell-based, Vaccinia virus strain WR; conditions: Vaccinia virus on HFFF
[9] = system: HCMV; assay: Plaque number reduction assay, HCMV on HFFF; type: cell-based, Human cytomegalovirus strain Toledo
[10] = system: HSV-1; assay: Plaque number reduction assay, HSV-1 on HFFF; type: cell-based, Herpes simplex virus type 1 strain 17
[11] = system: SV40 large T-antigen; type: cell-based; conditions: SV40-infected MCF-7 and T47D; 20 μM Roscovitine or 8 μM 105 (FIG. 8)
[12] = system: IV; type: cell-based, Influenza Virus H1N1 strain A/PR/8/34; conditions: MDCK cells
[13] = system: HIV promoter (pHIV-lacZ, extrachromosomal) in H1299-TAT cells; assay: β-galactosidase expression from pHIV-lacZ transiently transfected to H1299-TAT; conditions: H1299-TAT cells (FIG. 11)
[14] = system: HIV promoter integrated into cellular DNA (H1299-HIV cells); assay: β-galactosidase expression from pHIV-lacZ incorporated to cellular genome (H1299-HIV); conditions: HIV promoter integrated into cellular DNA (FIG. 11)
[15] = system: HSV-2; assay: Plaque number reduction assay, HSV-2 on HFFF; type: cell-based, HSV-2 strain HG52

CDK9, sequence (P50750 whole entry, species assumed): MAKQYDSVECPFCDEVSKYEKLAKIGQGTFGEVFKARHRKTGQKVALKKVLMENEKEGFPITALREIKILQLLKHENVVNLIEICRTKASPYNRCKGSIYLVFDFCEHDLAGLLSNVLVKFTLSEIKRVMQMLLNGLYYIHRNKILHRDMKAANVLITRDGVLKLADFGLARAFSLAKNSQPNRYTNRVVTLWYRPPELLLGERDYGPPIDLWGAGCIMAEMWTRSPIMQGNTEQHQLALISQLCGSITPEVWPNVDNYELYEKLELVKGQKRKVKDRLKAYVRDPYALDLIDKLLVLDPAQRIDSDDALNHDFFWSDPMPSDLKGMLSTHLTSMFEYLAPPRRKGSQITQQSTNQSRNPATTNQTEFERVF
CDK9, sequence (O60563 whole entry partner, species assumed): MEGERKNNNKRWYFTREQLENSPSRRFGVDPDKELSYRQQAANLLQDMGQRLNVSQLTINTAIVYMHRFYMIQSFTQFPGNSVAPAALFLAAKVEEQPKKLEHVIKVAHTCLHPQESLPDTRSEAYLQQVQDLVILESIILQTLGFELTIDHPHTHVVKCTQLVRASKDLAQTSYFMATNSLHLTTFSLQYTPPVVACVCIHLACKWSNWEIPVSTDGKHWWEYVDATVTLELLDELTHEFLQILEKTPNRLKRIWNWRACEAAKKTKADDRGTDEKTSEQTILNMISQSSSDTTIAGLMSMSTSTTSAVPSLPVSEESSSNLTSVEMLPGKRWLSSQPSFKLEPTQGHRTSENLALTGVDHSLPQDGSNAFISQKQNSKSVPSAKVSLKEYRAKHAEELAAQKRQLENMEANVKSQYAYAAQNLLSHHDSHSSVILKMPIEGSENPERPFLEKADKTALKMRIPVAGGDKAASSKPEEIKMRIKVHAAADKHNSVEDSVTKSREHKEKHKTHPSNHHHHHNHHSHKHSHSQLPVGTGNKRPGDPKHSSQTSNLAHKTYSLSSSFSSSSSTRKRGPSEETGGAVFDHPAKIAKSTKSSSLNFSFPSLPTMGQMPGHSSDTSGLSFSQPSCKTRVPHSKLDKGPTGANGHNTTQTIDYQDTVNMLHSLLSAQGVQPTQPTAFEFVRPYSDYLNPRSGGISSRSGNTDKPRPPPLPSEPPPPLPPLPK

Row | Structure (SMILES) | higher inhibitory activity for CDK9 [1] | lower concentrations inducing nuclear accumulation and transcriptional activation of p53 [2] | inhibition of virus replication (in words) [3] | large T-antigen expression [4] | phosphorylation of both serine 2 and serine 5 of RNA polymerase II CTD [5] | expression from CMV promoter (β-galactosidase activity) [6] | inhibition of virus replication (in words) [7] | inhibition of virus replication (in words) [8] | inhibition of virus replication (in words) [9] | inhibition of virus replication (in words) [10] | level of large T-antigen [11] | inhibition of virus replication (in words) [12] | expression from pHIV-lacZ (extrachromosomal location), β-galactosidase readout [13] | increase of reporter readout [14] | inhibition of virus replication (in words) [15]
1 | CC[C@H](CO)Nc1nc(NCc2ccccc2O)c2ncn(C(C)C)c2n1 [Olomoucine II] | 10 fold | 2-3 fold |  |  |  |  |  |  |  |  |  |  |  |  | 
2 | CC[C@H](CO)Nc1nc(NCc2ccccc2)c2ncn(C(C)C)c2n1 [Roscovitine, 2-(R)-(1-Ethyl-2-hydroxyethylamino)-6-benzylamino-9-isopropylpurine, reference compound] |  |  | inhibited HAd4 replication | stimulated large T-antigen expression | inhibited | inhibited expression | ineffective | no overt effect | equally sensitive | did not inhibit | reduced level | ineffective | inhibited | 2.5 times | did not inhibit
